This is an account of results in patent publication US9724396B2, “Use of antagonists of growth hormone or growth hormone receptor to prevent or treat stress-sensitive psychiatric illness” (Massachusetts Institute of Technology, priority 2013, dated 2017).

Assay [1] concerns the target T1, ghrelin receptor (Rattus norvegicus, UniProt O08725).
T1 construct: short-term cultures were generated of BLA cells and measured GH protein in the media following treatment with either MK-0677 or vehicle; endogenous in cells; host or cells: short-term cultures of basolateral amygdala (BLA) cells
Kind of assay: GH release from short-term BLA cell cultures after ghrelin receptor stimulation. Format: cell-based. The conditions noted are these: versus vehicle. On the procedure:
(§1) Animals were killed 24 h after the last stress or handling session and the basolateral complex of the amygdala (BLA) was dissected. Growth hormone (GH) levels in the BLA were measured using enzyme-linked immunosorbent assay (ELISA). b) The herpes simplex virus (HSV)-based viral vectors expressing either green fluorescent protein (GFP; CON) or recombinant rat GH (rGH) was infused in the BLA and expression was assessed after behavioral testing was complete. Representative GFP expression from two rats is shown. c) Auditory Pavlovian fear conditioning was performed 3 days after HSV virus infusions. d) Long-term fear memory was assessed by placing the animals in a novel context and measuring conditional freezing following tone presentation 48 h after the conditioning session. e) Short-term BLA cell cultures were used to measure GH release following treatment with a ghrelin receptor agonist (MK) or vehicle (VEH). f) Adeno-associated virus (AAV) constructs were generated to examine the contribution of GH-mediated signaling in the BLA to ghrelin-induced potentiation of fear. g) Following infusion of the AAVs into the BLA and recovery, rats received 10 days of systemic injection of either a ghrelin receptor agonist (MK) or vehicle (VEH). […]

The test system of assay [2] is endogenous GH. Kind of assay: Auditory fear conditioning after intra-BLA AAV (GHA or GFP) and 10 days of systemic MK-0677 or saline. The format is in vivo, rat. Particulars: 10 days MK-0677 or saline, tested 48 h after conditioning. On the procedure: as §1
Assay [3] concerns GH. Particulars: Varga et al, Proc. Natl. Acad. Sci. USA 1999; cited from earlier work.

T1 sequence (O08725 whole entry): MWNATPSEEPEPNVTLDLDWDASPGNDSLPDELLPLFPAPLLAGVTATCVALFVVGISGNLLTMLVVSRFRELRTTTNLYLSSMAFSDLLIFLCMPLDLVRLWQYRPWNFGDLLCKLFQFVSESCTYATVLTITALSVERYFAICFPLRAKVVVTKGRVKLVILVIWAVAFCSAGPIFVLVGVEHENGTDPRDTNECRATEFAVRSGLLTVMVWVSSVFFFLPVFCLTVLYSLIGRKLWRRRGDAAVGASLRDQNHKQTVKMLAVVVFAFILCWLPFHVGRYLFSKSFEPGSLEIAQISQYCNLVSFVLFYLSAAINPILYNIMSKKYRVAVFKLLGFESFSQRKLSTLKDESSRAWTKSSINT

Regarding `CC(C)(N)C(=O)N[C@H](COCc1ccccc1)C(=O)N1CCC2(CC1)CN(S(C)(=O)=O)c1ccccc12` [MK-0677], the “release of GH into the media” value in assay [1] was “significantly elevated release of GH”. In addition, the “long-term auditory fear memory” value in assay [2] is on record as “fear-enhancing effects”.
With “[PhAc-Tyr1,D-Arg2,Phe(4-Cl)6, Har9,Tyr(Me)10,Abu15,Nle27,D-Arg28,Har29]hGH-RH(1-29)NH2 [JV-1-38]”, the antagonistic activity entry in assay [3] was “high and or protracted antagonistic activity”.
As to “[PhAc-Tyr1,DArg2, Phe(4-Cl)6,Arg9,Abu15,Nle27,D-Arg28,Har29]hGH-RH(1-29)NH2 [JV-1-36]”, the antagonistic activity entry in assay [3] is “high and or protracted antagonistic activity”.
Take “[PhAc-Tyr1,D-Arg2,Phe(4-Cl)6,Abu15,Nle27, D-Arg28,Har29]hGH-RH(1-29)NH2 [MZ-6-55]”: the antagonistic activity result in assay [3] is “high and or protracted antagonistic activity”.
Turning to “[PhAc-Tyr1,DArg2, Phe(4-Cl)6,Arg9,Abu15,Nle27,D-Arg29]hGH-RH(1-29)NH2 [JV-1-10]”, the antagonistic activity entry in assay [3] is “high and or protracted antagonistic activity”.
